Key:
[1] = molecular target: hCA II (Homo sapiens, UniProt P00918); test: CAs inhibition assay (esterase activity, p-nitrophenyl acetate); type: biochemical
Description: Human CA isoforms (hCAI and hCAII) were purified by the Sepharose - 4B - L - tyrosine - sulfanilamide affinity segregation method as reported. Bradford technique was used to measure protein concentrations at 595 nm. Inhibitory effects of the compounds were investigated by measuring the esterase activity according to Verpoorte et al. as described in previous. The hCA activity was determined by measuring the conversion of thep-nitrophenyl acetate substrate to p -nitro phenolate at 348 nm by the spectrophotometer (UV - VIS Spectrophotometer, UVmini-1240, Shimadzu Corporation, Kyoto, Japan). Acetazolamide (AZA) was used as a control drug. Lineweaver–Burk plot was used to calculate inhibition constants (Ki) of the compounds [33]. All chemicals were purchased from Sigma-Aldrich Chemie GmbH.

[2] = molecular target: hCA I (Homo sapiens, UniProt P00915); test: as above; type: biochemical
Text: Human CA isoforms (hCAI and hCAII) were purified by the Sepharose - 4B - L - tyrosine - sulfanilamide affinity segregation method as reported. […] Inhibitory effects of the compounds were investigated by measuring the esterase activity according to Verpoorte et al. as described in previous. […] All chemicals were purchased from Sigma-Aldrich Chemie GmbH.

Chain of hCA I (P00915 whole entry, canonical isoform): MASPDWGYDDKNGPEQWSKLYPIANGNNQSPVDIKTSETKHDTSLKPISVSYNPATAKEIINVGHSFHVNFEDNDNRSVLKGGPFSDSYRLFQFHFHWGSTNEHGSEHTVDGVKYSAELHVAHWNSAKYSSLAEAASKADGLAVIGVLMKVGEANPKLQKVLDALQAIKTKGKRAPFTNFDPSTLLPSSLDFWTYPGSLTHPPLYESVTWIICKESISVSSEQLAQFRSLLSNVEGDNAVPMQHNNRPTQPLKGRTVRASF

SMILES | IC50 [1] [nM] | Ki [1] [nM] | fold more potent against hCAII than reference AZA ([1]; based on Ki values) [fold] | IC50 [2] [nM] | Ki [2] [nM] | fold more potent inhibitor against hCAI than reference AZA ([2]; based on Ki values) [fold]
O=C(CSc1nc2ccccc2s1)c1ccc(O)cc1 [Compound 1, 2-(Benzo[d]thiazol-2-ylthio)-1-(4-hydroxyphenyl)ethanone] | 29.4 | 8.76 ± 0.84 | 2.0 | 35.4 | 14.6 ± 2.06 | 
Cc1nnc(SCC(=O)c2ccc(O)cc2)s1 [Compound 4, 1-(4-Hydroxyphenyl)-2-((5-methyl-1,3,4-thiadiazol-2-yl)thio)ethanone] | 41.7 | 16.9 ± 3.99 |  | 48.1 | 13.8 ± 2.47 | 
Cn1nnnc1SCC(=O)c1ccc(O)cc1 [Compound 6, 1-(4-Hydroxyphenyl)-2-((1-methyl-1 H -tetrazol-5-yl)thio)ethanone] | 57.3 | 27.4 ± 11.8 |  | 62.5 | 14.4 ± 3.71 | 
O=C(CSc1nc2ccccc2o1)c1ccc(O)cc1 [Compound 2, 2-(Benzo[d]oxazol-2-ylthio)-1-(4-hydroxyphenyl)ethanone] | 43.6 | 23.4 ± 7.13 |  | 32.8 | 8.61 ± 0.9 | 2.5
Cn1cnnc1SCC(=O)c1ccc(O)cc1 [Compound 5, 1-(4-Hydroxyphenyl)-2-((4-methyl-4 H -1,2,4-triazol-3-yl)thio)ethanone] | 34 | 14.3 ± 5.1 |  | 65.6 | 42.6 ± 7.59 | 
Cn1ccnc1SCC(=O)c1ccc(O)cc1 [Compound 3, 1-(4-Hydroxyphenyl)-2-((1-methyl-1H-imidazol-2-yl)thio)ethanone] | 39.8 | 31.6 ± 3.29 |  | 35.2 | 17.8 ± 2.08 | 

From paper PMC7751916, “Synthesis and bioactivities of 1-(4-hydroxyphenyl)-2-((heteroaryl)thio)ethanones as carbonic anhydrase I, II and acetylcholinesterase inhibitors” (Turkish Journal of Chemistry, 2020)
